Assay results as given in PubChem BioAssay (NCI).
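Here, GI50 denotes the concentration required for 50% inhibition of growth. TGI: concentration producing complete growth inhibition.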

Columns and labels:
Experiment in all cases: DTP human tumour cell line panel, 384-well format
HT29 colon = test system: HT29 colon
UACC-62 melanoma = test system: UACC-62 melanoma
MDA-MB-231 breast = test system: MDA-MB-231 breast
NCI/ADR-RES ovarian = test system: NCI/ADR-RES ovarian
SK-MEL-28 melanoma = test system: SK-MEL-28 melanoma
HCT-15 colon = test system: HCT-15 colon
MDA-MB-435 melanoma = test system: MDA-MB-435 melanoma
MCF7 breast = test system: MCF7 breast
ACHN renal = test system: ACHN renal
A498 renal = test system: A498 renal
SK-MEL-2 melanoma = test system: SK-MEL-2 melanoma
HS 578T breast = test system: HS 578T breast
NCI-H522 lung = test system: NCI-H522 lung
UACC-257 melanoma = test system: UACC-257 melanoma
EKVX NSCLC = test system: EKVX NSCLC
SN12C renal = test system: SN12C renal
MALME-3M melanoma = test system: MALME-3M melanoma
HOP-62 NSCLC = test system: HOP-62 NSCLC
OVCAR-8 ovarian = test system: OVCAR-8 ovarian
K-562 leukemia = test system: K-562 leukemia
SF-295 CNS = test system: SF-295 CNS
NCI-H226 lung = test system: NCI-H226 lung
LOX IMVI melanoma = test system: LOX IMVI melanoma
IGROV1 ovarian = test system: IGROV1 ovarian
SF-268 CNS = test system: SF-268 CNS
CCRF-CEM leukemia = test system: CCRF-CEM leukemia
SR leukemia = test system: SR leukemia
HL-60(TB) leukemia = test system: HL-60(TB) leukemia
SK-OV-3 ovarian = test system: SK-OV-3 ovarian
BT-549 breast = test system: BT-549 breast
OVCAR-3 ovarian = test system: OVCAR-3 ovarian
HCT-116 colon = test system: HCT-116 colon
A549 NSCLC = test system: A549 NSCLC
DU-145 prostate = test system: DU-145 prostate
RPMI-8226 leukemia = test system: RPMI-8226 leukemia
OVCAR-5 ovarian = test system: OVCAR-5 ovarian
MDA-MB-468 breast = test system: MDA-MB-468 breast
RXF 393 renal = test system: RXF 393 renal
SNB-19 CNS = test system: SNB-19 CNS
U251 glioblastoma = test system: U251 glioblastoma
COLO 205 colon = test system: COLO 205 colon
MOLT-4 leukemia = test system: MOLT-4 leukemia
TK-10 renal = test system: TK-10 renal
SW-620 colon = test system: SW-620 colon
T-47D breast = test system: T-47D breast
HOP-92 NSCLC = test system: HOP-92 NSCLC
SNB-75 CNS = test system: SNB-75 CNS
OVCAR-4 ovarian = test system: OVCAR-4 ovarian
KM12 colon = test system: KM12 colon
NCI-H23 lung = test system: NCI-H23 lung
M14 melanoma = test system: M14 melanoma
NCI-H460 NSCLC = test system: NCI-H460 NSCLC
NCI-H322M lung = test system: NCI-H322M lung
PC-3 prostate = test system: PC-3 prostate
SF-539 CNS = test system: SF-539 CNS
786-0 renal = test system: 786-0 renal
UO-31 renal = test system: UO-31 renal
HCC-2998 colon = test system: HCC-2998 colon
SK-MEL-5 melanoma = test system: SK-MEL-5 melanoma
CAKI-1 renal = test system: CAKI-1 renal

Cc1[nH]nc(C(F)(F)F)c1Cc1sc2c(c1C(=O)N1C[C@](C)(O)CO1)c(=O)n(C)c(=O)n2C(C)C
GI50 (HT29 colon): > 39.6 µM
TGI (HT29 colon): > 100 µM
TGI (UACC-62 melanoma): > 100 µM
GI50 (MDA-MB-231 breast): > 100 µM
TGI (MDA-MB-231 breast): > 100 µM
GI50 (NCI/ADR-RES ovarian): > 58.7 µM
TGI (NCI/ADR-RES ovarian): > 100 µM
GI50 (SK-MEL-28 melanoma): > 100 µM
TGI (SK-MEL-28 melanoma): > 100 µM
GI50 (HCT-15 colon): 12.2 µM
TGI (HCT-15 colon): > 100 µM
GI50 (MDA-MB-435 melanoma): > 69 µM
TGI (MDA-MB-435 melanoma): > 100 µM
GI50 (MCF7 breast): > 82.5 µM
TGI (MCF7 breast): > 100 µM
GI50 (ACHN renal): > 33.1 µM
TGI (ACHN renal): > 100 µM
GI50 (A498 renal): > 100 µM
TGI (A498 renal): > 100 µM
GI50 (SK-MEL-2 melanoma): 39.1 µM
TGI (SK-MEL-2 melanoma): > 100 µM
GI50 (HS 578T breast): 8.39 µM
TGI (HS 578T breast): > 100 µM
GI50 (NCI-H522 lung): 2.15 µM
TGI (NCI-H522 lung): 18.3 µM
GI50 (UACC-257 melanoma): > 100 µM
TGI (UACC-257 melanoma): > 100 µM
GI50 (EKVX NSCLC): > 100 µM
TGI (EKVX NSCLC): > 100 µM
GI50 (SN12C renal): > 100 µM
TGI (SN12C renal): > 100 µM
GI50 (MALME-3M melanoma): > 77.9 µM
TGI (MALME-3M melanoma): > 100 µM
GI50 (HOP-62 NSCLC): > 27.3 µM
TGI (HOP-62 NSCLC): > 100 µM
GI50 (OVCAR-8 ovarian): > 22.8 µM
TGI (OVCAR-8 ovarian): > 100 µM
TGI (K-562 leukemia): > 100 µM
GI50 (SF-295 CNS): > 100 µM
TGI (SF-295 CNS): > 100 µM
GI50 (NCI-H226 lung): > 100 µM
TGI (NCI-H226 lung): > 100 µM
TGI (LOX IMVI melanoma): > 100 µM
GI50 (IGROV1 ovarian): > 100 µM
TGI (IGROV1 ovarian): > 100 µM
TGI (SF-268 CNS): > 29.6 µM
GI50 (CCRF-CEM leukemia): 0.779 µM
GI50 (SR leukemia): > 100 µM
TGI (SR leukemia): > 100 µM
TGI (HL-60(TB) leukemia): > 29.8 µM
GI50 (SK-OV-3 ovarian): > 100 µM
TGI (SK-OV-3 ovarian): > 100 µM
GI50 (BT-549 breast): > 57 µM
TGI (BT-549 breast): > 100 µM
GI50 (OVCAR-3 ovarian): > 29.3 µM
TGI (OVCAR-3 ovarian): > 100 µM
GI50 (HCT-116 colon): > 24.5 µM
TGI (HCT-116 colon): > 100 µM
GI50 (A549 NSCLC): > 21.2 µM
TGI (A549 NSCLC): > 100 µM
GI50 (DU-145 prostate): > 30.5 µM
TGI (DU-145 prostate): > 100 µM
GI50 (RPMI-8226 leukemia): 20.9 µM
TGI (RPMI-8226 leukemia): > 86 µM
GI50 (OVCAR-5 ovarian): > 78.6 µM
TGI (OVCAR-5 ovarian): > 100 µM
GI50 (MDA-MB-468 breast): 4.75 µM
TGI (MDA-MB-468 breast): 66.4 µM
GI50 (RXF 393 renal): > 27.3 µM
TGI (RXF 393 renal): > 100 µM
GI50 (SNB-19 CNS): > 100 µM
TGI (SNB-19 CNS): > 100 µM
GI50 (U251 glioblastoma): > 25 µM
TGI (U251 glioblastoma): > 100 µM
GI50 (COLO 205 colon): > 21.8 µM
TGI (COLO 205 colon): > 100 µM
GI50 (MOLT-4 leukemia): 0.0847 µM
GI50 (TK-10 renal): > 100 µM
TGI (TK-10 renal): > 100 µM
GI50 (SW-620 colon): > 24.4 µM
TGI (SW-620 colon): > 100 µM
GI50 (T-47D breast): > 100 µM
TGI (T-47D breast): > 100 µM
GI50 (HOP-92 NSCLC): > 100 µM
TGI (HOP-92 NSCLC): > 100 µM
GI50 (SNB-75 CNS): > 41.9 µM
TGI (SNB-75 CNS): > 100 µM
GI50 (OVCAR-4 ovarian): > 100 µM
TGI (OVCAR-4 ovarian): > 100 µM
GI50 (KM12 colon): > 31.6 µM
TGI (KM12 colon): > 100 µM
GI50 (NCI-H23 lung): > 27.1 µM
TGI (NCI-H23 lung): > 100 µM
GI50 (M14 melanoma): > 33.7 µM
TGI (M14 melanoma): > 100 µM
TGI (NCI-H460 NSCLC): > 100 µM
GI50 (NCI-H322M lung): > 100 µM
TGI (NCI-H322M lung): > 100 µM
GI50 (PC-3 prostate): > 100 µM
TGI (PC-3 prostate): > 100 µM
GI50 (SF-539 CNS): > 27 µM
TGI (SF-539 CNS): > 100 µM
GI50 ([…]-0 renal): > 26.9 µM
TGI (786-0 renal): > 100 µM
GI50 (UO-31 renal): 12.9 µM
TGI (UO-31 renal): > 100 µM
GI50 (HCC-2998 colon): > 100 µM
TGI (HCC-2998 colon): > 100 µM
TGI (SK-MEL-5 melanoma): > 100 µM
GI50 (CAKI-1 renal): > 47.6 µM
TGI (CAKI-1 renal): > 80 µM
